Test results from patent publication US5747065A, “Monoglyceride/lactate ester permeation enhancer for oxybutynin” (priority 1996, dated 1998).
Like-named read-outs stand apart in the source and are kept apart here. One block for each compound: values may come before it.

Assays:
[1] = Solubility of glycerol monolaurate in lauryl lactate / EVA 40; type: physicochemical; conditions: for Wt % GML in solution (free GML): based on GML solubility of 350 mg/g
Source text: The unexpected effects of the specific weight percentages of the components of the permeation enhancer mixture are believed to be due, in part, to the solubility of the monoglyceride in the lactic acid ester. It is known that monoglycerides by themselves are effective permeation enhancers. The enhancement occurs by the solubilization of the monoglyceride in the lipid layer of the skin. The solubilization of the monoglyceride in the lipid layer increases as a function of lactic acid ester concentration. […] Thus, the amount of GML dissolved, ie, free GML, is dictated by and proportional to the lauryl lactate loading in the polymer.

[2] = compared with racemate; devices/gels of Table 4
Description: The drug/permeation enhancer reservoir was prepared by mixing, depending on the formulation, either ethylene vinyl acetate copolymer having a vinyl acetate content of 40 percent ("EVA 40", U.S.I. Chemicals, Illinois) or mineral oil and petrolatum in an internal mixer (Bra Bender type mixer) until the EVA 40 pellets fused. Oxybutynin, glycerol monolaurate and lauryl lactate were then added.
When EVA 40 was used the mixture was blended, cooled and calendered to a 5 mil thick film. This film was then laminated to an acrylic contact adhesive (MSP041991P, 3M) on one side and Medpar® backing (3M) on the opposite side. The laminate was then cut into 2.54 cm^2 circles using a stainless steel punch. Circular pieces of human-epidermis were mounted on horizontal permeation cells with the stratum corneum facing the donor compartment of the cell. The release liner of the system was then removed and the system was centered over the stratum corneum side of the epidermis. A known volume of the receptor solution (0.05M sodium phosphate buffer at pH 6) that had been equilibrated at 35° C. was placed in the receptor compartment. Air bubbles were removed; the cell was capped and placed in a water bath-shaker at 35° C.
When the mineral oil/petrolatum was used, the mixture, containing the drug and permeation enhancers, was blended/mixed and then poured into the donor side of a two-side diffusion cell. […]

[3] = 25 mg/mL aqueous oxybutynin, 20 μm polybutadiene film, 0.05M isotonic phosphate buffer, cited from earlier work
[4] = type: in vivo, human; conditions: transdermal, coadministered with the permeation enhancing mixture
Description: Representative skin permeation rates of oxybutynin through living human skin are in the range of about 5 μg/cm^2 ·hr to about 15 μg/cm^2 ·hr. Therapeutic blood levels can be achieved within approximately 6-10 hours after the initial application, and blood concentrations are maintained with subsequent system applications. The range of desired and achievable system permeation rates of oxybutynin, arriving through the skin from a limited area, is 1-20 mg over a period of 24 hours. The system application is easily adapted for shorter or longer duration treatments, but generally 72 hours is the duration for a single application.

Wt % GML in solution (free GML) ([1]; 12% lauryl lactate in EVA 40): 4.2%
Wt % GML in solution (free GML) ([1]; 20% lauryl lactate in EVA 40): 7.0%
Wt % GML in solution (free GML) ([1]; 27% lauryl lactate in EVA 40): 9.5%
Wt % GML in solution (free GML) ([1]; 30% lauryl lactate in EVA 40): 10.5%
solubility in EVA 40 matrix ([1]; in an EVA 40 matrix): practically insoluble
solubility of glycerol monolaurate in lauryl lactate ([1]; in lauryl lactate, solution stirred): 350 mg/g of solution
SMILES: CCCCCCCCCCCC(=O)OCC(O)CO (centres unmarked) [glycerol monolaurate]

SMILES: CCN(CC)CC#CCOC(=O)[C@@](O)(c1ccccc1)C1CCCCC1 [S-oxybutynin]
flux of R- or S-oxybutynin relative to the racemate [2]: approximately equivalent to that of the racemate

SMILES: CCN(CC)CC#CCOC(=O)[C@](O)(c1ccccc1)C1CCCCC1 [R-oxybutynin]
flux of R- or S-oxybutynin relative to the racemate [2]: approximately equivalent to that of the racemate

SMILES: CCN(CC)CC#CCOC(=O)C(O)(c1ccccc1)C1CCCCC1 (centres unmarked) [oxybutynin]
in vitro release rate ([3]; per area): ~10 μg/cm^2 ·hr
in vitro release rate ([3]; through 49 cm^2 area): approximately 12 mg over 24 hours
time to therapeutic blood levels after the initial application [4]: 6 to 10 h
